A short description of assay [1]: climbing mice assay (antipsychotic activity; inhibition of apomorphine induced climbing). Particulars: Mus musculus, ip, 30 minutes prior to apomorphine 1.5 mg/kg s.c., read-out: Anti-Psychotic Activity (ED50), 50% inhibition of apomorphine induced climbing. It is filed as in vivo, mice (CK-1 male). The source says:
The subject CK-1 male mice (23-27 grams) are group-housed under standard laboratory conditions. The mice are individually placed in wire mesh stick cages (4"×4" by 10") and are allowed one hour for adaptation and exploration of the new environment.
Mice consistently climbing before the injection of apomorphine are discarded.
With full-developed apomorphine climbing, the animals are hanging onto the cage walls, rather motionless, over longer periods of time. By contrast, climbs due to mere motor stimulation usually last only a few seconds.

Assay [2] in a line: modified phenyl-p-quinone writhing assay in mice (analgesia). In kind it is in vivo, mice (male, Charles River, CD-1). How it is done: The procedure employed to determine analgesic utility is a modification of the phenyl-p-quinone writhing assay in mice, a standard assay for analgesia [Proc. Soc. Exptl. Bio. Med., 95 729 (1957)]. In the modified procedure phenyl-p-benzoquinone (Eastman, 12.5 mg) is dissolved in 5 ml of 95% ethanol and the solution is diluted to a total volume of 100 ml with distilled water. The solution is administered to the subject mice […] at a dose of 10 ml per kg of body weight. A characteristic "writh", an inward rotation of one or more feet with twisting and turning of the trunk, drawing in of the abdominal wall, lordosis and arching of the back, is produced.
A total of 28 male mice (Charles River, CD-1), weighing 18 to 30 grams, are employed for a time response. The subject animals receive food and water ad libitum. Test compounds are dissolved in distilled water, or suspended in distilled water containing one drop of a suitable surfactant, such as Tween-80.
Four groups of five animals (20 animals) are given the test compound subcutaneously at 15, 30, 45 and 60 minutes prior to administration of the phenyl-p-quinone. Four control groups of 2 animals (8 animals) receive an equal volume of the vehicle. […] The number of writhes for each animal is recorded. […]

For `CSc1ccc2c(c1)N(CCCN1CCC(C(O)c3ccc(F)cc3)CC1)c1ccccc1S2` (stereo not drawn) [α-(4-Fluorophenyl)-1-[3-(2-methylthiophenothiazin-10-yl)propyl]-4-piperidinemethanol], the ED50 in assay [1] worked out at 8.6 mg/kg. For the same molecule, the “Analgesic Activity (% Inhibition of Writhing)” value in assay [2] (at 20 mg/kg, subcutaneous (route per method)) was 43%.

For `CC(C)=CCN1CCC2(C)c3cc(O)ccc3CC1C2C` (stereo not shown) [Pentazocine], the “Analgesic Activity (% Inhibition of Writhing)” value in assay [2] (at 1.3 mg/kg sc, standard) was 50%.

Consider `CSc1ccc2c(c1)N(CCC1CCCCN1C)c1ccccc1S2` (stereo not shown) [Thioridazine], for which the 50% effective dose (ED50) in assay [1] was 4.1 mg/kg.

The values above are taken from patent US4822796A, “1-((Phenothiazin-10-yl)alkyl)-alpha-phenyl-4-piperidinemethanols and pharmaceutical use” (priority 1987, dated 1989).
